From patent US10604554B2, “Double-acylated GLP-1 derivatives” (Novo Nordisk A/S, priority 2012, dated 2020)

Key:
human GLP-1 receptor [1] = biological target: T1, human GLP-1 receptor (Homo sapiens, UniProt P43220); test: In vitro potency (CRE luciferase; whole cells); format: cell-based; design: EC50/pM (ratio 1% HSA/0% HSA): unit not given here; settings: for EC50: BHK cells
T1 construct: expressed in transfected cells; host or cells: BHK cells, clone FCW467-12A/KZ10-1 (parent line BHKTS13), further transfected with CRE luciferase
Experimental: The purpose of this example is to test the activity, or potency, of the GLP-1 derivatives in vitro. The in vitro potency is the measure of human GLP-1 receptor activation in a whole cell assay.
In vitro potency was determined by measuring the response of human GLP-1 receptor in a reporter gene assay. The assay was performed in a stably transfected BHK cell line that expresses the human GLP-1 receptor and contains the DNA for the cAMP response element (CRE) coupled to a promoter and the gene for firefly luciferase (CRE luciferase). When the human GLP-1 receptor was activated it results in the production of cAMP, which in turn results in the luciferase protein being expressed. When assay incubation was completed the luciferase substrate (luciferin) was added and the enzyme converts luciferin to oxyluciferin and produces bioluminescence. The luminescence was measured and was the readout for the assay.
An increase of the in vitro potency, EC50 value, in the presence of serum albumin indicates an affinity to serum albumin and represents a method to predict a protracted pharmacokinetic profile of the test substance in animal models.
The cells were cultured at 5% CO2 in cell culture medium. They were aliquoted and stored in liquid nitrogen. Before each assay an aliquot was taken up and washed twice in PBS before being suspended at the desired concentration in the assay specific buffer.
The following chemicals were used in the assay: Pluronic F-68 (10%) (Gibco 2404), human serum albumin (HSA) (Sigma A9511), ovalbumin (Sigma A5503), DMEM w/o phenol red (Gibco 11880-028), 1 M Hepes (Gibco 15630), Glutamax 100× (Gibco 35050) and steadylite plus (PerkinElmer 6016757).
1) Cell stocks were thawed in a 37° C. water bath.
2) Cells were washed three times in PBS.
3) The cells were counted and adjusted to 5×10^3 cells/50 μl (1×10^5 cells/ml) in assay medium. A 50 μl aliquot of cells was transferred to each well in the assay plate.
4) Stocks of the test compounds and reference compounds were diluted to a concentration of 0.2 μM in 0% assay buffer for the 0% HSA CRE luciferase assay and 1% assay buffer for the HSA CRE luciferase assay. […] 5) A 50 μl aliquot of compound or blank was transferred in triplicate from the dilution plate to the assay plate. […] 7) The assay plate was removed from the incubator and allowed to stand at room temperature for 15 min. 8) A 100 μl aliquot of steadylite plus reagent was added to each well of the assay plate (reagent was light sensitive). 9) Each assay plate was covered with aluminum foil to protect it from light and shaken for 30 min at room temperature. 10) Each assay plate was read in a Packard TopCount NXT instrument. Calculations and Results
The data from the TopCount instrument were transferred to GraphPad Prism software. The software averages the values for each replicate and performs a non-linear regression.

human GLP-1 receptor [2] = biological target: T1, human GLP-1 receptor; test: GLP-1 receptor binding (SPA, displacement of 125I-GLP-1)
Experimental: The purpose of this experiment is to investigate the binding to the GLP-1 receptor of the GLP-1 derivatives, and how the binding is potentially influenced by the presence of albumin. This is done in an in vitro experiment as described below.
In order to test the binding of the derivatives to albumin, the assay was performed with a low concentration of albumin (0.001%—corresponding to the residual amount thereof in the tracer), as well as with a high concentration of albumin (2.0% added). A shift in the binding affinity, IC50, is an indication that the peptide in question binds to albumin, and thereby a prediction of a potential protracted pharmacokinetic profile of the peptide in question in animal models.
Species (in vitro): Hamster
Biological End Point: Receptor Binding
A stable transfected cell line and a high expressing clone were selected for screening. The cells were grown at 5% CO2 in DMEM, 10% FCS, 1% Pen/Strep (Penicillin/Streptomycin) and 1.0 mg/ml of the selection marker G418.
The cells (approx. 80% confluence) were washed twice in PBS and harvested with Versene (aqueous solution of the tetrasodium salt of ethylenediaminetetraacetic acid), following which they were separated by centrifugation at 1000 rpm for 5 min. The cells/cell pellet must be kept on ice to the extent possible in the subsequent steps. The cell pellet was homogenised with Ultrathurrax for 20-30 seconds in a suitable amount of Buffer 1 (depending on the amount of cells, but e.g. 10 ml). The homogenate was centrifuged at 20000 rpm for 15 minutes. The pellet was resuspended (homogenised) in 10 ml Buffer 2 and re-centrifuged. This step was repeated once more. The resulting pellet was resuspended in Buffer 2, and the protein concentration was determined. The membranes were stored at minus 80° C.
Buffer 1:20 mM Na-HEPES+10 mM EDTA, pH 7.4
Buffer 2:20 mM Na-HEPES+0.1 mM EDTA, pH 7.4
Test compounds, membranes, SPA-particles and [^125I]-GLP-1(7-36)NH2 were diluted in assay buffer. 50 ul (micro liter) HSA (“high albumin” experiment containing 2% HSA), or buffer (“low albumin” experiment containing 0.001% HSA) was added to Optiplate, and 25 ul of test compounds were added. 5-10 ug membrane protein/sample was added (50 ul) corresponding to 0.1-0.2 mg protein/ml (to be preferably optimised for each membrane preparation). SPA-particles (Wheatgerm agglutinin SPA beads, Perkin Elmer, # RPNQ0001) were added in an amount of 0.5 mg/well (50 ul). The incubation was started with [^125I]-GLP-1]-(7-36)NH2 (final concentration 0.06 nM corresponding to 49.880 DPM, 25 ul). The plates were sealed with PlateSealer and incubated for 120 minutes at 30° C. while shaking. The plates were centrifuged (1500 rpm, 10 min) and counted in Topcounter.

[3] = In vitro potency (CRE luciferase) EC50 (1% HSA), 1% HSA
[4] = Receptor binding affinity IC50 (high HSA), 2.0% HSA (high albumin)
[5] = In vitro potency (CRE luciferase) EC50 (0% HSA), 0% HSA

T1 sequence (P43220 24-463): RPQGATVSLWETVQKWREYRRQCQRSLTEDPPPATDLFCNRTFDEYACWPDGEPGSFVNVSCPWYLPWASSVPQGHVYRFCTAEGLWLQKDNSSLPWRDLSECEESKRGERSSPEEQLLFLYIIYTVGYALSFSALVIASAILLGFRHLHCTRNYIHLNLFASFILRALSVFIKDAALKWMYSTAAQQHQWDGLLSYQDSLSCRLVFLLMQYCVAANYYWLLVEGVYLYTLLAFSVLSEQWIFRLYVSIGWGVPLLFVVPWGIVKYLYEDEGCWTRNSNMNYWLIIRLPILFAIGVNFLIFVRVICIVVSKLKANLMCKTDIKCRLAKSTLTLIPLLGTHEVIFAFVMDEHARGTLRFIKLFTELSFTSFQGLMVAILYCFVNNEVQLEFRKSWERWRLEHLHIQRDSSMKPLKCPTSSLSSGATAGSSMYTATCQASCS

Structure (SMILES) | EC50 (human GLP-1 receptor [1]; [3]) | IC50 (human GLP-1 receptor [2]; [4]) | EC50 (human GLP-1 receptor [1]; [5]) | EC50/pM (ratio 1% HSA/0% HSA) (human GLP-1 receptor [1]; ratio of EC50 at 1% HSA to EC50 at 0% HSA) | IC50 (human GLP-1 receptor [2]; Receptor binding affinity IC50 (low HSA), 0.001% HSA (low albumin))
CC[C@H](C)[C@H](NC(=O)[C@H](Cc1ccccc1)NC(=O)[C@H](CCC(=O)O)NC(=O)[C@H](CCCCNC(=O)[C@H](CCCCNC(=O)[C@H](CCCCNC(=O)CC[C@H](NC(=O)CCCCCCCCCCOc1ccc(C(=O)O)cc1)C(=O)O)N(C)C)N(C)C)NC(=O)[C@H](C)NC(=O)[C@H](C)NC(=O)[C@H](CCC(N)=O)NC(=O)CNC(=O)[C@H](CCC(=O)O)NC(=O)[C@H](CC(C)C)NC(=O)[C@H](Cc1ccc(O)cc1)NC(=O)[C@H](CO)NC(=O)[C@H](CO)NC(=O)[C@@H](NC(=O)[C@H](CC(=O)O)NC(=O)[C@H](CO)NC(=O)[C@@H](NC(=O)[C@H](Cc1ccccc1)NC(=O)[C@@H](NC(=O)CNC(=O)[C@H](CCC(=O)O)NC(=O)C(C)(C)NC(=O)[C@@H](N)Cc1c[nH]cn1)[C@@H](C)O)[C@@H](C)O)C(C)C)C(=O)N[C@@H](C)C(=O)N[C@@H](Cc1c[nH]c2ccccc12)C(=O)N[C@@H](CC(C)C)C(=O)N[C@H](C(=O)N[C@@H](CCCNC(=N)N)C(=O)NCC(=O)N[C@@H](CCCNC(=N)N)C(=O)N[C@@H](CCCCNC(=O)[C@H](CCCCNC(=O)[C@H](CCCCNC(=O)CC[C@H](NC(=O)CCCCCCCCCCOc1ccc(C(=O)O)cc1)C(=O)O)N(C)C)N(C)C)C(=O)O)C(C)C [Example 37, N^ε26-[(2S)-6-[[(2S)-6-[[(4S)-4-carboxy-4-[11-(4-carboxyphenoxy)undecanoylamino]butanoyl]amino]-2-(dimethylamino)hexanoyl]amino]-2-(dimethylamino)hexanoyl], N^ε37-[(2S)-6-[[(2S)-6-[[(4S)-4-carboxy-4-[11-(4-carboxyphenoxy)undecanoylamino]butanoyl]amino]-2-(dimethylamino)hexanoyl]amino]-2-(dimethylamino)hexanoyl]-[Aib^8,Arg^34,Lys^37]-GLP-1-(7-37)-peptide] | 0.093 nM | 24 nM |  |  | 
CC[C@H](C)[C@H](NC(=O)[C@H](Cc1ccccc1)NC(=O)[C@H](CCC(=O)O)NC(=O)[C@H](CCCCNC(=O)[C@@H](N)CCCCNC(=O)[C@@H](N)CCCCNC(=O)CC[C@H](NC(=O)CC[C@H](NC(=O)CCCCCCCCCCOc1ccc(C(=O)O)cc1)C(=O)O)C(=O)O)NC(=O)[C@H](C)NC(=O)[C@H](C)NC(=O)[C@H](CCC(N)=O)NC(=O)CNC(=O)[C@H](CCC(=O)O)NC(=O)[C@H](CC(C)C)NC(=O)[C@H](Cc1ccc(O)cc1)NC(=O)[C@H](CO)NC(=O)[C@H](CO)NC(=O)[C@@H](NC(=O)[C@H](CC(=O)O)NC(=O)[C@H](CO)NC(=O)[C@@H](NC(=O)[C@H](Cc1ccccc1)NC(=O)[C@@H](NC(=O)CNC(=O)[C@H](CCC(=O)O)NC(=O)C(C)(C)NC(=O)[C@@H](N)Cc1c[nH]cn1)[C@@H](C)O)[C@@H](C)O)C(C)C)C(=O)N[C@@H](C)C(=O)N[C@@H](Cc1c[nH]c2ccccc12)C(=O)N[C@@H](CC(C)C)C(=O)N[C@H](C(=O)N[C@@H](CCCNC(=N)N)C(=O)NCC(=O)N[C@@H](CCCNC(=N)N)C(=O)N[C@@H](CCCCNC(=O)[C@@H](N)CCCCNC(=O)[C@@H](N)CCCCNC(=O)CC[C@H](NC(=O)CC[C@H](NC(=O)CCCCCCCCCCOc1ccc(C(=O)O)cc1)C(=O)O)C(=O)O)C(=O)O)C(C)C [Example 38, N^ε26-[(2S)-2-amino-6-[[(2S)-2-amino-6-[[(4S)-4-carboxy-4-[[(4S)-4-carboxy-4-[11-(4-carboxyphenoxy)undecanoylamino]butanoyl]amino]butanoyl]amino]hexanoyl]amino]hexanoyl], N^ε37-[(2S)-2-amino-6-[[(2S)-2-amino-6-[[(4S)-4-carboxy-4-[[(4S)-4-carboxy-4-[11-(4-carboxyphenoxy)undecanoylamino]butanoyl]amino]butanoyl]amino]hexanoyl]amino]hexanoyl]-[Aib^8,Arg^34,Lys^37]-GLP-1-(7-37)-peptide] | 0.189 nM | 53 nM | 0.0076 nM |  | 
CC[C@H](C)[C@H](NC(=O)[C@H](Cc1ccccc1)NC(=O)[C@H](CCC(=O)O)NC(=O)[C@H](CCCCNC(=O)[C@@H](N)CCCCNC(=O)[C@@H](N)CCCCNC(=O)COCCOCCNC(=O)COCCOCCNC(=O)CC[C@H](NC(=O)CCCCCCCCCCOc1ccc(C(=O)O)cc1)C(=O)O)NC(=O)[C@H](C)NC(=O)[C@H](C)NC(=O)[C@H](CCC(N)=O)NC(=O)CNC(=O)[C@H](CCC(=O)O)NC(=O)[C@H](CC(C)C)NC(=O)[C@H](Cc1ccc(O)cc1)NC(=O)[C@H](CO)NC(=O)[C@H](CO)NC(=O)[C@@H](NC(=O)[C@H](CC(=O)O)NC(=O)[C@H](CO)NC(=O)[C@@H](NC(=O)[C@H](Cc1ccccc1)NC(=O)[C@@H](NC(=O)CNC(=O)[C@H](CCC(=O)O)NC(=O)C(C)(C)NC(=O)[C@@H](N)Cc1c[nH]cn1)[C@@H](C)O)[C@@H](C)O)C(C)C)C(=O)N[C@@H](C)C(=O)N[C@@H](Cc1c[nH]c2ccccc12)C(=O)N[C@@H](CC(C)C)C(=O)N[C@H](C(=O)N[C@@H](CCCNC(=N)N)C(=O)NCC(=O)N[C@@H](CCCNC(=N)N)C(=O)N[C@@H](CCCCNC(=O)[C@@H](N)CCCCNC(=O)[C@@H](N)CCCCNC(=O)COCCOCCNC(=O)COCCOCCNC(=O)CC[C@H](NC(=O)CCCCCCCCCCOc1ccc(C(=O)O)cc1)C(=O)O)C(=O)O)C(C)C [Example 33] | 0.069 nM | 33 nM | 0.0074 nM | 11 | 0.31 nM
